Numbers after ± are expanded uncertainties.

The nature of this data set: molar enthalpy of vaporization or sublimation. Conditions: 298.15 K; Crystal; Static calorimetry.

For `COC(N)=O` [carbamic acid, methyl ester], the molar enthalpy is 17.6 ± 0.311 kcal/mol.
With `CCOC(N)=O` [ethyl carbamate] the figure was 18.6 ± 0.335 kcal/mol.
